Values of other authors in paper PMC9120017, “Inhibition mechanism of the chloride channel TMEM16A by the pore blocker 1PBC” (Nature Communications, 2022).

Test system: TMEM16A
Settings: cited from earlier work

Row | Compound | Inhibition of TMEM16A | Selectivity for anion channels of the TMEM16 family over the scramblase TMEM16F
1 | O=C(O)c1c2ccccc2cc2ccccc12 [9-AC, 9-anthracene carboxylate] | inhibit TMEM16A | –
2 | O=S(=O)(O)c1cc(N=C=S)ccc1C=Cc1ccc(N=C=S)cc1S(=O)(=O)O [DIDS, 4,4′-Diisothiocyanato-2,2′-stilbenedisulfonic acid] | inhibit TMEM16A | –
3 | O=C(O)c1cccnc1Nc1cccc(C(F)(F)F)c1 [NFA] | – | selective for anion channels of the TMEM16 family over the scramblase TMEM16F
4 | O=C(O)c1cc([N+](=O)[O-])ccc1NCCCc1ccccc1 [NPPB] | – | selective for anion channels of the TMEM16 family over the scramblase TMEM16F
5 | O=C(Nc1ccc([N+](=O)[O-])cc1Cl)c1cc(Cl)ccc1O [niclosamide] | inhibit TMEM16A | –
